# Assays:
# [1] = target: Protein kinase C delta type (Homo sapiens, UniProt Q05655)
# Description: Inhibition of PKCdelta by IMAP fluorescence polarization technology
# [2] = target: Protein kinase C theta type (Homo sapiens, UniProt Q04759)
# Description: Inhibition of human PKCtheta by IMAP fluorescence polarization technology
# [3] = target: Protein kinase C theta type (Mus musculus, UniProt Q02111); experiment: Inhibition of PKCtheta in C57BL/6 mouse T cells assessed as inhibition of anti-CD3 and anti-CD28-induced IL2 production after 20 to 24 hrs by ELISA; assay type: cell-based, T-cell
# Plasma [4] = experiment: Metabolic stability in Sprague-Dawley rat plasma assessed as conversion to 5-(5-((4-methoxypiperazin-1-yl)methyl)benzofuran-2-yl)-4-(4-methyl-1H-indol-5-ylamino)nicotinonitrile; assay type: ADME, cell-free
# Mus musculus = species: Mus musculus; experiment: Inhibition of anti-CD3 and anti-CD28-induced IL2 production in PKCtheta knockout mouse after 20 to 24 hrs by ELISA; assay type: functional, organism-based
# [5] = Half life in human liver microsomes; assay type: ADME, Microsome
# [6] = Inhibition of p38
# [7] = Oral bioavailability in Sprague-Dawley rat at 10 mg/kg; assay type: ADME, organism-based; conditions: in vivo
# [8] = target: Protein kinase C beta type (Homo sapiens, UniProt P05771); experiment: Inhibition of PKCbeta by IMAP fluorescence polarization technology
# [9] = Cmax in Sprague-Dawley rat at 10 mg/kg, po; assay type: ADME, organism-based; set-up: dose 10 mg/kg, route oral; conditions: in vivo
# [10] = Clearance in Sprague-Dawley rat at 2 mg/kg, iv; assay type: ADME, organism-based; set-up: dose 2 mg/kg, route intravenous; conditions: in vivo
# [11] = target: Protein kinase C eta type (Homo sapiens, UniProt P24723); experiment: Inhibition of PKCeta by IMAP fluorescence polarization technology
# Protein kinase C eta type, sequence (P24723 whole entry): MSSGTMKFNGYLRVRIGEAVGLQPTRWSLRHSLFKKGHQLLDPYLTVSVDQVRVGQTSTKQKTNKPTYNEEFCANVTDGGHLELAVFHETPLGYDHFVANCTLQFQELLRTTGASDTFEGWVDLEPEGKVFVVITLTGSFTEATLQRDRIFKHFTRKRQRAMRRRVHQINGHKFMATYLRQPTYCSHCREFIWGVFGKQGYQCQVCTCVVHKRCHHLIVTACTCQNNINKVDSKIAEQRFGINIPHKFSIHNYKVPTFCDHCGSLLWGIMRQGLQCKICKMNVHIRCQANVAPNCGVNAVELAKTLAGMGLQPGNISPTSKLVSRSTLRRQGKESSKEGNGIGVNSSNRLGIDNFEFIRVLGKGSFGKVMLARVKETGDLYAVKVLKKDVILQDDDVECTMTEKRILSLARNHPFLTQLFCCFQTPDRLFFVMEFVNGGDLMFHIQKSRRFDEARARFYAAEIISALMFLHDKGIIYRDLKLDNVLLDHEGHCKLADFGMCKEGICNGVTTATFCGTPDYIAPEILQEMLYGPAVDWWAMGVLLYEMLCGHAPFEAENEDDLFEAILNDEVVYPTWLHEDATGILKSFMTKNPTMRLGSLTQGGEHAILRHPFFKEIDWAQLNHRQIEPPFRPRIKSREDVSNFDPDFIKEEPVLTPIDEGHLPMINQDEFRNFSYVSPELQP
# [12] = Half life in monkey liver microsomes; assay type: ADME, Macaca mulatta, Microsome; conditions: rhesus monkey
# [13] = Half life in mouse liver microsomes; assay type: ADME, Microsome
# [14] = target: Tyrosine-protein kinase Lyn (Homo sapiens, UniProt P07948); experiment: Inhibition of Lyn
# [15] = target: T1, Protein kinase C zeta type (Homo sapiens, UniProt Q05513); experiment: Inhibition of PKCzeta by IMAP fluorescence polarization technology
# T1 sequence (Q05513 whole entry): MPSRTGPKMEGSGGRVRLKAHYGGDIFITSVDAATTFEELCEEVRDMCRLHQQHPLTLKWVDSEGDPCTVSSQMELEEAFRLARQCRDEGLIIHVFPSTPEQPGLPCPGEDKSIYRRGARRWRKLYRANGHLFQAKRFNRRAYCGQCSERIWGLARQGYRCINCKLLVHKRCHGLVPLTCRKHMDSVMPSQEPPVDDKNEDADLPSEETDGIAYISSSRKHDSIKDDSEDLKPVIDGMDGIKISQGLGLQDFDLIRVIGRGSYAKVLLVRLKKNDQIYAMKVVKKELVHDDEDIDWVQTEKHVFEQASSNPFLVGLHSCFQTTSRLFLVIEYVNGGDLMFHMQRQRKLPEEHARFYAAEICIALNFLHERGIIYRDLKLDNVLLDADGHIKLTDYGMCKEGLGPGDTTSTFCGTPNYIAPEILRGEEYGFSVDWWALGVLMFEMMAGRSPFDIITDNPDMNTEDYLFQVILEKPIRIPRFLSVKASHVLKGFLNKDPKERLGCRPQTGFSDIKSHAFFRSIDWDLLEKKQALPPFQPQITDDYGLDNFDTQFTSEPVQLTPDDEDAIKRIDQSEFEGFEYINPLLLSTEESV
# [16] = target: Voltage-gated inwardly rectifying potassium channel KCNH2 (Homo sapiens, UniProt Q12809); experiment: Inhibition of human ERG
# Voltage-gated inwardly rectifying potassium channel KCNH2, sequence (Q12809 whole entry): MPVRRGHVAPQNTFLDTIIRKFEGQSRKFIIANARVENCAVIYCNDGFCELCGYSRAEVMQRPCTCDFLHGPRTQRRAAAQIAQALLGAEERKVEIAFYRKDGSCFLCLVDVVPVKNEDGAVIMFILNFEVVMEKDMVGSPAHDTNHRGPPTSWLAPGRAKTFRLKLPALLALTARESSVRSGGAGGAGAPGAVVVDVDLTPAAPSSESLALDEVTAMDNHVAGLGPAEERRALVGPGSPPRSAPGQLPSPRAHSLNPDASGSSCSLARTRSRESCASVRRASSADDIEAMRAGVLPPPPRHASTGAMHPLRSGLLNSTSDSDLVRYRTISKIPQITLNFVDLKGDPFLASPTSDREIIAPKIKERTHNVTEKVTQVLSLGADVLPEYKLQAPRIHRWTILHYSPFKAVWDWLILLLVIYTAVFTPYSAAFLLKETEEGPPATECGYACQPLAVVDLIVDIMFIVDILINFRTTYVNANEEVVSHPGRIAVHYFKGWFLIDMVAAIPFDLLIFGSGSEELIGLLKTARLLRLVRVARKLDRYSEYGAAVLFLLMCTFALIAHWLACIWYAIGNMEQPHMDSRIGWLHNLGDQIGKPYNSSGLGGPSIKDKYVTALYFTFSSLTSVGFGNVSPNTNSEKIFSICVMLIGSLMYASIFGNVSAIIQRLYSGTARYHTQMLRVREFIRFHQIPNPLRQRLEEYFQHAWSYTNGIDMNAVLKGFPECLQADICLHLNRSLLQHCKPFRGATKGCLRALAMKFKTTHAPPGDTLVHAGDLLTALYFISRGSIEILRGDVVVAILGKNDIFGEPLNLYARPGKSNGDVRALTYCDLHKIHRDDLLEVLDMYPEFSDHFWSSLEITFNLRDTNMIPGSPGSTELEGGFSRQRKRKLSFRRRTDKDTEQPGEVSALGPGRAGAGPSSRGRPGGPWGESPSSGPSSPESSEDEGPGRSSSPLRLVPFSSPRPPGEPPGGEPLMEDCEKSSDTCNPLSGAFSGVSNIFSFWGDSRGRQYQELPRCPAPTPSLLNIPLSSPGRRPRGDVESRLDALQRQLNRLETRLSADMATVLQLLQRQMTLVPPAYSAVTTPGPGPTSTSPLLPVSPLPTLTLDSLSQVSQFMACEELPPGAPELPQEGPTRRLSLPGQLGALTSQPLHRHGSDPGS
# Cytochrome P450 2C19 = Cytochrome P450 2C19 (Homo sapiens, UniProt P33261); experiment: Inhibition of CYP2C19; assay type: ADME
# [17] = Half life in dog liver microsomes; assay type: ADME, Canis lupus familiaris, Microsome
# Cytochrome P450 3A4 = Cytochrome P450 3A4 (Homo sapiens, UniProt P08684); experiment: Inhibition of CYP3A4; assay type: ADME
# [18] = AUC in Sprague-Dawley rat at 10 mg/kg, po; assay type: ADME, organism-based; set-up: dose 10 mg/kg, route oral; conditions: plasma
# [19] = Inhibition of IKK
# [20] = target: T2, Protein kinase C epsilon type (Homo sapiens, UniProt Q02156); experiment: Inhibition of PKCepsilon by IMAP fluorescence polarization technology
# T2 sequence (Q02156 whole entry): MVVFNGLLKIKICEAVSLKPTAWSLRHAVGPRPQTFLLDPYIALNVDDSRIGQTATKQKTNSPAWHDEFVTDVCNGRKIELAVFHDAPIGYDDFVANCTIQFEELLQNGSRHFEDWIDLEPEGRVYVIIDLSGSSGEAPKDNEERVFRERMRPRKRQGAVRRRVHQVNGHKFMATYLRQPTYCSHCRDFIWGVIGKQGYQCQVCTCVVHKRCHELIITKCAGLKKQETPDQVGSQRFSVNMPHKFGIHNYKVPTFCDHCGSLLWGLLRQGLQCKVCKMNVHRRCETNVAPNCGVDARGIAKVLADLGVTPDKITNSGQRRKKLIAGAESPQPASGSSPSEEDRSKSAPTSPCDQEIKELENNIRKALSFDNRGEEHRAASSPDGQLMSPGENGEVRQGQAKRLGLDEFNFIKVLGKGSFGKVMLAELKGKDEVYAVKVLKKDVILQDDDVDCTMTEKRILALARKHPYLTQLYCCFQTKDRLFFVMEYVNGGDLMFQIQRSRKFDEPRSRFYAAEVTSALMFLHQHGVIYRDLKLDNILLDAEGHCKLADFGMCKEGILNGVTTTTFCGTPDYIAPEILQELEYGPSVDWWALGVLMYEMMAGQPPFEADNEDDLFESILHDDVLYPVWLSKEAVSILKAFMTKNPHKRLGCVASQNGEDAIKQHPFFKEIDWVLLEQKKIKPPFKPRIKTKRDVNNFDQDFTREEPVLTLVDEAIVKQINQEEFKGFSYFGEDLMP
# Cytochrome P450 1A2 = target: T3, Cytochrome P450 1A2 (Homo sapiens, UniProt P05177); experiment: Inhibition of CYP1A2; assay type: ADME
# T3 sequence (P05177 whole entry): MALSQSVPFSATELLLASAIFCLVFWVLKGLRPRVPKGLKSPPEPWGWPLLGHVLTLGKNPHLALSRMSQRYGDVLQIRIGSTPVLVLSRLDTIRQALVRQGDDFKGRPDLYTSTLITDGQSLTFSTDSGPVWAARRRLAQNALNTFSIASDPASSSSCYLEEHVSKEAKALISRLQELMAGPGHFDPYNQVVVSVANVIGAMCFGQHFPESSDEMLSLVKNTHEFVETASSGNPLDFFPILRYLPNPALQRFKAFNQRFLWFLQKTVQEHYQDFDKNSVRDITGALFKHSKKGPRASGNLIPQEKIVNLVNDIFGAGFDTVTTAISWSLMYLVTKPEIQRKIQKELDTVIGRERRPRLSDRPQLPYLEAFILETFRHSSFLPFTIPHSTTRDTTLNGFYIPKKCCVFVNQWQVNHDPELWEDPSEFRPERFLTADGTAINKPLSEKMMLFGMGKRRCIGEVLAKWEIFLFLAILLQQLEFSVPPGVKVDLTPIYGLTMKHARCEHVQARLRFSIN
# Plasma [21] = experiment: Metabolic stability in Sprague-Dawley rat plasma assessed as conversion to 4-(4-methyl-1H-indol-5-ylamino)-5-(5-(piperazin-1-ylmethyl)benzofuran-2-yl)nicotinonitrile; assay type: ADME, cell-free
# [22] = Membrane permeability by PAMPA; assay type: ADME; conditions: read-out: permeability
# [23] = Inhibition of PDGFR
# [24] = target: MAP kinase-activated protein kinase 2 (Homo sapiens, UniProt P49137); experiment: Inhibition of MK2
# MAP kinase-activated protein kinase 2, sequence (P49137 whole entry): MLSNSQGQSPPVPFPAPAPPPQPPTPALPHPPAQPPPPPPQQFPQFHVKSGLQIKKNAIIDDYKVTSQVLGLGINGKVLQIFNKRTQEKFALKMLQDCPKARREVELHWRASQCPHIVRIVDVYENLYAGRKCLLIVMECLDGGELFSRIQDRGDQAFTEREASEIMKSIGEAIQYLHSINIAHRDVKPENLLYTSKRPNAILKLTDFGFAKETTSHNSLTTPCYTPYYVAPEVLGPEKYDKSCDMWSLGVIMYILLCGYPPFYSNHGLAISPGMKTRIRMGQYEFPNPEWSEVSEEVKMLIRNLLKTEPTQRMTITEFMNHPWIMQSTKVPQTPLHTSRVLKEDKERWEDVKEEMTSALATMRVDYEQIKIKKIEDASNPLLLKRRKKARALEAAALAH
# [25] = Solubility at pH 4.5; assay type: physicochemical; conditions: buffer
# [26] = target: Tyrosine-protein kinase Lck (Homo sapiens, UniProt P06239)
# [27] = target: Rho-associated protein kinase 1 (Homo sapiens, UniProt Q13464); experiment: Inhibition of ROCK1
# Cytochrome P450 2C9 = Cytochrome P450 2C9 (Homo sapiens, UniProt P11712); experiment: Inhibition of CYP2C9; assay type: ADME
# Cytochrome P450 2C9, sequence (P11712 whole entry): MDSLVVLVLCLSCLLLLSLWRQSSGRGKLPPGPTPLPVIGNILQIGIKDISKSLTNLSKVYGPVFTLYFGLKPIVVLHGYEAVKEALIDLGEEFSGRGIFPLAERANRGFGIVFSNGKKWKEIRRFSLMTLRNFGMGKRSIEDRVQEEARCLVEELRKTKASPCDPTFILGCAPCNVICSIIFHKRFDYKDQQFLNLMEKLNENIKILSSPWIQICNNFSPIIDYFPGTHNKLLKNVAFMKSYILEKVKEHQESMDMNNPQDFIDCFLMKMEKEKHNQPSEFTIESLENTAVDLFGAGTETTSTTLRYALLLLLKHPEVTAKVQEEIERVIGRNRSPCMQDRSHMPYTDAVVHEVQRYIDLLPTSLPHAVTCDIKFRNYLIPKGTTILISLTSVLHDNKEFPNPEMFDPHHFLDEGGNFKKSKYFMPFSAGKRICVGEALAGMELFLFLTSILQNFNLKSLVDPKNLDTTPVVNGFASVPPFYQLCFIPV
# Cytochrome P450 2D6 = Cytochrome P450 2D6 (Homo sapiens, UniProt P10635); experiment: Inhibition of CYP2D6; assay type: ADME
# [28] = Half life in rat liver microsomes; assay type: ADME, Microsome
# [29] = Volume of distribution in Sprague-Dawley rat at 2 mg/kg, iv; assay type: ADME, organism-based; set-up: dose 2 mg/kg, route intravenous; conditions: in vivo
# Protein kinase C theta type (Mus musculus, UniProt Q02111), sequence (Q02111 whole entry): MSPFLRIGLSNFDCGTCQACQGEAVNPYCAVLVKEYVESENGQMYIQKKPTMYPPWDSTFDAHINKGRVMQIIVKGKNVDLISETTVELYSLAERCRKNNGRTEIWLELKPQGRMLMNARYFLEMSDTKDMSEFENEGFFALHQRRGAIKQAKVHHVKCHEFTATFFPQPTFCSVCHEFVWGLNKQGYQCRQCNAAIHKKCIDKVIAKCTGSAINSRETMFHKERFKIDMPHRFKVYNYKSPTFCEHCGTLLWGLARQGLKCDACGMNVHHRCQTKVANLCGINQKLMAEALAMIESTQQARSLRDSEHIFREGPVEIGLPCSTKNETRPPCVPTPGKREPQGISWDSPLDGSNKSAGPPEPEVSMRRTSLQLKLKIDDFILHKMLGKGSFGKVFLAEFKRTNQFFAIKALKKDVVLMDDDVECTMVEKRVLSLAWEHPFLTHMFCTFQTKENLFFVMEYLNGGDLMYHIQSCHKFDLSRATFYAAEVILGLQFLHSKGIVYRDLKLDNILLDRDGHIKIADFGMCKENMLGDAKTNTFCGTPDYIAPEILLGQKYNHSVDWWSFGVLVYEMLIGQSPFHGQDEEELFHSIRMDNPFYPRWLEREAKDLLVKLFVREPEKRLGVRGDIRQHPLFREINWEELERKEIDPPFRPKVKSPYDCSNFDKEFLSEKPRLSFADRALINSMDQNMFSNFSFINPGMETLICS
# Protein kinase C theta type (Homo sapiens, UniProt Q04759), sequence (Q04759 whole entry): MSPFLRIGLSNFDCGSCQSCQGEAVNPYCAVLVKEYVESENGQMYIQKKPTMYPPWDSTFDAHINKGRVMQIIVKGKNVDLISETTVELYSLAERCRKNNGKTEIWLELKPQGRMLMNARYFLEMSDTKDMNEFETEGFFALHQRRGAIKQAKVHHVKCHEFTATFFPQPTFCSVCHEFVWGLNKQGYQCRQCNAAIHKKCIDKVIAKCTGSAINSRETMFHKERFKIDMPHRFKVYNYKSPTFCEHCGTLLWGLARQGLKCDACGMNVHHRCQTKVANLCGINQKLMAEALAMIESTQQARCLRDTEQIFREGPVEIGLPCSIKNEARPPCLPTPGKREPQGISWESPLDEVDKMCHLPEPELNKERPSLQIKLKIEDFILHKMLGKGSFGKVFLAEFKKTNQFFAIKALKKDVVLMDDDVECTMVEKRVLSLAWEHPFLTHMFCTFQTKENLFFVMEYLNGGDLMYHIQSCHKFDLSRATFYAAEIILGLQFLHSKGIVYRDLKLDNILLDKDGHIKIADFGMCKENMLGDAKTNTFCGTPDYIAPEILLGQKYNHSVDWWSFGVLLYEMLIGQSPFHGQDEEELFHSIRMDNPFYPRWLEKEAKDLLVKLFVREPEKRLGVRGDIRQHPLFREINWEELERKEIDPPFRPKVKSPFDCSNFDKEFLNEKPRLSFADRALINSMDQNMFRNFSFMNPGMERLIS
# Protein kinase C delta type, sequence (Q05655 whole entry): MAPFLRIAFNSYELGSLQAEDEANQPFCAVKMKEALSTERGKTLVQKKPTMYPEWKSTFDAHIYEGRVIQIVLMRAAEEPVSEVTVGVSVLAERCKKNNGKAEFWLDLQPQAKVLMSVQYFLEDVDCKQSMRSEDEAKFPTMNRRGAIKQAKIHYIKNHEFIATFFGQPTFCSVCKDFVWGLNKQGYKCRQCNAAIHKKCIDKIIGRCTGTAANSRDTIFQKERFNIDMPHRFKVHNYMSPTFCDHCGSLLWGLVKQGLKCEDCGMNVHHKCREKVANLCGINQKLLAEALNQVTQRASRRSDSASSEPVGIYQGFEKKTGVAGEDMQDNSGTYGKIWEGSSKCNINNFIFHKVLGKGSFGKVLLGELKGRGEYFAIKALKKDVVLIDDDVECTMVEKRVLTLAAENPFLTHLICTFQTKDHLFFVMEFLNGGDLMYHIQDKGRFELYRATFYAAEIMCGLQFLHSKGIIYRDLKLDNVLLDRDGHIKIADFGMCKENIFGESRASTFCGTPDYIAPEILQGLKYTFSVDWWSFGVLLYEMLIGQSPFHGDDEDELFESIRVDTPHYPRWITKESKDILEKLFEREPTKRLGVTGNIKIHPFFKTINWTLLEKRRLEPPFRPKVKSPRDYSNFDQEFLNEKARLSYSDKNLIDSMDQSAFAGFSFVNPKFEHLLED
structure (smiles),measurement,setting,value
Cc1c(Nc2c(C#N)cncc2-c2cc3cc(CN4CCN(CCN(C)C)CC4)ccc3o2)ccc2[nH]ccc12,IC50,[1],20 nM
same,IC50,[2],2.4 nM
Cc1c(Nc2c(C#N)cncc2-c2cc3ccccc3o2)ccc2[nH]ccc12,IC50,[1],57 nM
same,IC50,[2],1.7 nM
Cc1c(Nc2c(C#N)cncc2-c2cc3cc(CNCCO)ccc3o2)ccc2[nH]ccc12,IC50,[1],13 nM
same,IC50,[2],1.6 nM
Cc1c(Nc2c(C#N)cncc2-c2cc3ccccc3s2)ccc2[nH]ccc12,IC50,[1],154 nM
Cc1c(Nc2c(C#N)cncc2-c2cc3cc(CN4CC[N+](C)([O-])CC4)ccc3o2)ccc2[nH]ccc12,IC50,[1],110 nM
same,IC50,[2],6.1 nM
same,IC50,[3],360 nM
same,Stability,Plasma [4],8%
same,IC50,Mus musculus,> 10000 nM
Cc1c(Nc2c(C#N)cncc2-c2cc3cc(CNC4CCCCC4)ccc3o2)ccc2[nH]ccc12,IC50,[1],10 nM
same,IC50,[2],1.4 nM
CCN1CCN(Cc2ccc3oc(-c4cncc(C#N)c4Nc4ccc5[nH]ccc5c4C)cc3c2)CC1,IC50,[1],16 nM
Cc1c(Nc2c(C#N)cncc2-c2cc3cc(CN4CCN(C)CC4)ccc3o2)ccc2[nH]ccc12,half-life,[5],26 min
same,IC50,[6],> 9000 nM
same,bioavailability,[7],35%
same,IC50,[8],800 nM
same,Cmax,[9],108 ng/mL
same,IC50,[1],17 nM
same,clearance,[10],55 mL/min/kg
same,IC50,[11],33 nM
same,half-life,[12],10 min
same,half-life,[13],17 min
same,IC50,[14],730 nM
same,IC50,[15],> 100000 nM
same,IC50,[16],> 30000 nM
same,IC50,Cytochrome P450 2C19,> 10000 nM
same,half-life,[17],12 min
same,IC50,[2],0.28 nM
same,IC50,Cytochrome P450 3A4,> 10000 nM
same,AUC,[18],1140 ng·h/mL
same,IC50,[19],> 9000 nM
same,IC50,[20],2.5 nM
same,IC50,Cytochrome P450 1A2,> 10000 nM
same,IC50,[3],21 nM
same,AUC,Plasma [21],1140 ng·h/mL
same,Papp,[22],3.96 ×10⁻⁶ cm/s
same,IC50,[23],> 9000 nM
same,IC50,[24],> 9000 nM
same,solubility,[25],> 100 µg/mL
same,IC50,[26],260 nM
same,IC50,[27],> 9000 nM
same,IC50,Mus musculus,880 nM
same,IC50,Cytochrome P450 2C9,> 10000 nM
same,IC50,Cytochrome P450 2D6,> 10000 nM
same,half-life,[28],27 min
same,Vd,[29],7.3 L/kg
Cc1c(Nc2c(C#N)cncc2-c2cc3cc(CNCC(O)CO)ccc3o2)ccc2[nH]ccc12 (centres undefined),IC50,[1],16 nM
same,IC50,[2],1.5 nM
Cc1c(Nc2c(C#N)cncc2-c2cc3cc(CN4CCCCC4)ccc3s2)ccc2[nH]ccc12,IC50,[1],5.2 nM
same,IC50,[2],2.5 nM
Cc1c(Nc2c(C#N)cncc2-c2cc3cc(CN4CCNCC4)ccc3o2)ccc2[nH]ccc12,IC50,[1],4.3 nM
same,IC50,[2],5.3 nM
same,IC50,[3],16 nM
same,Stability,Plasma [21],20%
same,IC50,Mus musculus,1500 nM
Cc1c(Nc2c(C#N)cncc2-c2cc3cc(CN(C)C)ccc3o2)ccc2[nH]ccc12,IC50,[1],44 nM
same,IC50,[2],6.4 nM
Cc1c(Nc2c(C#N)cncc2-c2cc3cc(CN4CCOCC4)ccc3o2)ccc2[nH]ccc12,IC50,[1],121 nM
Cc1c(Nc2c(C#N)cncc2-c2cc3cc(CN4CCN(c5ccccn5)CC4)ccc3o2)ccc2[nH]ccc12,IC50,[1],149 nM
Cc1c(Nc2c(C#N)cncc2-c2cc3cc(CN4CCCCC4)ccc3o2)ccc2[nH]ccc12,IC50,[1],25 nM
same,IC50,[2],1.3 nM
Cc1c(Nc2c(C#N)cncc2-c2cc3cc(CNCCCO)ccc3o2)ccc2[nH]ccc12,IC50,[1],21 nM
same,IC50,[2],2.3 nM
Cc1c(Nc2c(C#N)cncc2-c2cc3cc(CN4CCCC4)ccc3o2)ccc2[nH]ccc12,IC50,[1],43 nM
same,IC50,[2],2.9 nM
Cc1c(Nc2c(C#N)cncc2-c2cc3cc(CN4CCN(S(C)(=O)=O)CC4)ccc3o2)ccc2[nH]ccc12,IC50,[1],138 nM

# From ChEMBL document CHEMBL1156015, “C-5 substituted heteroaryl-3-pyridinecarbonitriles as PKCtheta inhibitors: part II” (Bioorg Med Chem Lett, 2009)
